Values quoted from earlier work as cited in patent publication US20130281457A1, “PHARMACEUTICAL COMPOSITIONS COMPRISING 5-CHLORO-N-(-METHYL)-2-THIOPHENCARBOXAMID” (Ratiopharm GmbH, priority 2008, published 2013).

O=C(NC[C@H]1CN(c2ccc(N3CCOCC3=O)cc2)C(=O)O1)c1ccc(Cl)s1 [Compound I, 5-Chloro-N-({(5S)-2-oxo-3-[4-(3-oxo-4-morpholinyl)-phenyl]-1,3-oxazolidin-5-yl}-methyl)-2-thiophencarboxamid]
solubility in water: only limited solubility in water
